# PubChem BioAssay (NCI)
#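 Interpolation was linear, between the two tested concentrations surrounding the appropriate level; five concentrations were tested over 48 hours in 96-well plates. GI50 is the concentration that inhibits growth by half. The concentration for full growth arrest is given as TGI.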
# Experiments:
# Assay in all cases: DTP human tumour cell line panel, 48 h
# 786-0 renal = tested on: 786-0 renal
# A498 renal = tested on: A498 renal
# A549 NSCLC = tested on: A549 NSCLC
# ACHN renal = tested on: ACHN renal
# BT-549 breast = tested on: BT-549 breast
# CAKI-1 renal = tested on: CAKI-1 renal
# CCRF-CEM leukemia = tested on: CCRF-CEM leukemia
# COLO 205 colon = tested on: COLO 205 colon
# DU-145 prostate = tested on: DU-145 prostate
# EKVX NSCLC = tested on: EKVX NSCLC
# HCC-2998 colon = tested on: HCC-2998 colon
# HCT-116 colon = tested on: HCT-116 colon
# HCT-15 colon = tested on: HCT-15 colon
# HL-60(TB) leukemia = tested on: HL-60(TB) leukemia
# HOP-62 NSCLC = tested on: HOP-62 NSCLC
# HOP-92 NSCLC = tested on: HOP-92 NSCLC
# HS 578T breast = tested on: HS 578T breast
# HT29 colon = tested on: HT29 colon
# IGROV1 ovarian = tested on: IGROV1 ovarian
# K-562 leukemia = tested on: K-562 leukemia
# KM12 colon = tested on: KM12 colon
# LOX IMVI melanoma = tested on: LOX IMVI melanoma
# M14 melanoma = tested on: M14 melanoma
# MALME-3M melanoma = tested on: MALME-3M melanoma
# MCF7 breast = tested on: MCF7 breast
# MDA-MB-231 breast = tested on: MDA-MB-231 breast
# MDA-MB-435 = tested on: MDA-MB-435
# MOLT-4 leukemia = tested on: MOLT-4 leukemia
# NCI-H226 lung = tested on: NCI-H226 lung
compound,measurement,setting,value
FC(F)(F)CNc1nccc(-c2cnn3ncccc23)n1,GI50,786-0 renal,9.67 µM
same,TGI,786-0 renal,> 25 µM
same,GI50,A498 renal,3.85 µM
same,TGI,A498 renal,> 22.6 µM
same,GI50,A549 NSCLC,10.3 µM
same,TGI,A549 NSCLC,> 25 µM
same,GI50,ACHN renal,6.41 µM
same,TGI,ACHN renal,> 25 µM
same,GI50,BT-549 breast,> 14.1 µM
same,TGI,BT-549 breast,> 25 µM
same,GI50,CAKI-1 renal,15.9 µM
same,TGI,CAKI-1 renal,> 25 µM
same,GI50,CCRF-CEM leukemia,> 18.9 µM
same,TGI,CCRF-CEM leukemia,> 25 µM
same,GI50,COLO 205 colon,8.58 µM
same,TGI,COLO 205 colon,> 25 µM
same,GI50,DU-145 prostate,12 µM
same,TGI,DU-145 prostate,> 25 µM
same,GI50,EKVX NSCLC,15.1 µM
same,TGI,EKVX NSCLC,> 25 µM
same,GI50,HCC-2998 colon,> 25 µM
same,TGI,HCC-2998 colon,> 25 µM
same,GI50,HCT-116 colon,8.3 µM
same,TGI,HCT-116 colon,> 25 µM
same,GI50,HCT-15 colon,16.1 µM
same,TGI,HCT-15 colon,> 25 µM
same,GI50,HL-60(TB) leukemia,8.35 µM
same,TGI,HL-60(TB) leukemia,> 19.9 µM
same,GI50,HOP-62 NSCLC,> 13.6 µM
same,TGI,HOP-62 NSCLC,> 25 µM
same,GI50,HOP-92 NSCLC,6.13 µM
same,TGI,HOP-92 NSCLC,> 25 µM
same,GI50,HS 578T breast,8.14 µM
same,TGI,HS 578T breast,> 25 µM
same,GI50,HT29 colon,16.3 µM
same,TGI,HT29 colon,> 25 µM
same,GI50,IGROV1 ovarian,11.9 µM
same,TGI,IGROV1 ovarian,> 25 µM
same,GI50,K-562 leukemia,> 25 µM
same,TGI,K-562 leukemia,> 25 µM
same,GI50,KM12 colon,9.54 µM
same,TGI,KM12 colon,> 25 µM
same,GI50,LOX IMVI melanoma,10.7 µM
same,TGI,LOX IMVI melanoma,> 25 µM
same,GI50,M14 melanoma,11.5 µM
same,TGI,M14 melanoma,> 25 µM
same,GI50,MALME-3M melanoma,> 25 µM
same,TGI,MALME-3M melanoma,> 25 µM
same,GI50,MCF7 breast,7.3 µM
same,TGI,MCF7 breast,> 25 µM
same,GI50,MDA-MB-231 breast,> 25 µM
same,TGI,MDA-MB-231 breast,> 25 µM
same,GI50,MDA-MB-435,13.7 µM
same,TGI,MDA-MB-435,> 25 µM
same,GI50,MOLT-4 leukemia,> 25 µM
same,TGI,MOLT-4 leukemia,> 25 µM
same,GI50,NCI-H226 lung,12.6 µM
same,TGI,NCI-H226 lung,> 25 µM
